Measured values published in DBAASP.
Converted amounts (≈) assume the structure as drawn.

Key:
Experiment in all cases: ≥ marks a high value that may be exact or a test limit, other limits are often not marked, values filed in µg/mL are converted to µM
[1] = tested on: Staphylococcus aureus NCTC 12493
[2] = tested on: Candida albicans NCYC 1467
[3] = tested on: Staphylococcus aureus NCTC 10788
[4] = tested on: Escherichia coli NCTC 10418
[5] = tested on: Pseudomonas aeruginosa ATCC 27853
[6] = tested on: Enterococcus faecalis NCTC 12697
[7] = tested on: Staphylococcus epidermidis ATCC 51625
[8] = tested on: Enterococcus faecium ATCC 700221
[9] = tested on: Acinetobacter baumannii ATCC 17978D-5
[10] = tested on: Streptococcus pneumoniae ATCC 49619
[11] = tested on: Staphylococcus aureus ATCC 33591
[12] = tested on: Klebsiella aerogenes ATCC 13048
[13] = tested on: Pseudomonas aeruginosa ATCC 19660
[14] = tested on: Pseudomonas aeruginosa CICC 10419
[15] = tested on: Staphylococcus aureus ATCC 29213
[16] = tested on: Escherichia coli ATCC 25922
[17] = tested on: Pseudomonas aeruginosa CICC 11421
[18] = tested on: Pseudomonas aeruginosa 25349
[19] = tested on: Pseudomonas aeruginosa CICC 11411
[20] = tested on: Pseudomonas aeruginosa CICC 21630
[21] = tested on: Pseudomonas aeruginosa 21328
[22] = tested on: Pseudomonas aeruginosa CICC 11431
[23] = tested on: Pseudomonas aeruginosa CICC 21625
[24] = tested on: Candida parapsilosis NRRL Y-1763
Staphylococcus aureus = tested on: Staphylococcus aureus
Cutibacterium acnes = tested on: Cutibacterium acnes
Candida dubliniensis = tested on: Candida dubliniensis
[25] = tested on: Candida parapsilosis NRRL Y-1761
[26] = tested on: Candida albicans NRRL Y-326
[27] = tested on: Cutibacterium acnes ATCC 6919
Candida glabrata = tested on: Candida glabrata
Staphylococcus aureus MR = tested on: Staphylococcus aureus MR
[28] = tested on: Staphylococcus aureus ATCC 33592
[29] = tested on: Klebsiella pneumoniae ATCC 10031
Klebsiella pneumoniae = tested on: Klebsiella pneumoniae
Debaryomyces hansenii = tested on: Debaryomyces hansenii
Candida albicans 17-88 = tested on: Candida albicans 17-88
[30] = tested on: Cutibacterium acnes ATCC 11827
Candida albicans = tested on: Candida albicans
Kluyveromyces lactis = tested on: Kluyveromyces lactis
Candida parapsilosis = tested on: Candida parapsilosis
[31] = tested on: Candida albicans NRRL Y-6359
[32] = tested on: Acinetobacter baumannii ATCC 17978
Candida krusei = tested on: Candida krusei
Enterobacter cloacae = tested on: Enterobacter cloacae
Acinetobacter baumannii = tested on: Acinetobacter baumannii
Candida tropicalis = tested on: Candida tropicalis
Pseudomonas aeruginosa = tested on: Pseudomonas aeruginosa
[33] = tested on: Streptococcus mutans ATCC UA159

**Q.** `CSCC[C@H](NC(=O)[C@H](CC(=O)O)NC(=O)[C@@H](NC(=O)[C@@H](NC(=O)[C@H](C)NC(=O)[C@H](CC(N)=O)NC(=O)[C@H](CC(C)C)NC(=O)[C@H](C)NC(=O)[C@H](C)NC(=O)[C@H](CCCCN)NC(=O)CNC(=O)[C@H](C)NC(=O)[C@H](C)NC(=O)[C@H](CCCCN)NC(=O)CNC(=O)[C@@H](NC(=O)[C@H](Cc1cnc[nH]1)NC(=O)[C@H](CCCCN)NC(=O)[C@H](CC(C)C)NC(=O)[C@H](CC(C)C)NC(=O)[C@@H](NC(=O)[C@H](CCCCN)NC(=O)[C@H](Cc1c[nH]c2ccccc12)NC(=O)[C@H](CC(C)C)NC(=O)[C@H](C)N)[C@@H](C)O)C(C)C)C(C)C)[C@@H](C)O)C(=O)N[C@H](C(=O)N[C@@H](CC(N)=O)C(=O)N[C@@H](CCC(N)=O)C(N)=O)C(C)C` [ALWKTLLKHVGKAAGKAALNAVTDMVNQ] was tested. Which MIC [1] did it give?
**A.** 8 µM (≈ 23.6 µg/mL)

**Q.** What about the MIC [2] of the same compound?
**A.** 4 µM (≈ 11.8 µg/mL)

**Q.** What about the MIC [3] of the same compound?
**A.** 4 µM (≈ 11.8 µg/mL)

**Q.** What about the MIC [4] of the same compound?
**A.** 8 µM (≈ 23.6 µg/mL)

**Q.** What about the MIC [5] of the same compound?
**A.** 16 µM (≈ 47.2 µg/mL)

**Q.** What about the MIC [6] of the same compound?
**A.** ≥ 32 µM

**Q.** `C[C@H](NC(=O)[C@H](Cc1ccccc1)NC(=O)CNC(=O)[C@@H]1CCCN1C(=O)[C@@H](N)CS)C(=O)N[C@@H](CCCCN)C(=O)N[C@@H](CCCCN)C(=O)N[C@@H](Cc1ccccc1)C(=O)N[C@@H](C)C(=O)N[C@@H](CCCCN)C(=O)N[C@@H](CCCCN)C(=O)N[C@@H](Cc1ccccc1)C(=O)N[C@@H](CCCCN)C(=O)N[C@@H](CCCCN)C(=O)N[C@@H](Cc1ccccc1)C(=O)N[C@@H](C)C(=O)N[C@@H](CCCCN)C(=O)N[C@@H](CCCCN)C(=O)N[C@@H](Cc1ccccc1)C(=O)N[C@@H](C)C(=O)N[C@@H](CCCCN)C(=O)N[C@@H](Cc1ccccc1)C(=O)N[C@@H](C)C(=O)N[C@@H](Cc1ccccc1)C(=O)N[C@@H](C)C(=O)N[C@@H](Cc1ccccc1)C(=O)O` [CPGFAKKFAKKFKKFAKKFAKFAFAF] was tested. Which MIC [7] did it give?
**A.** 5.28 µM (≈ 16 µg/mL)

**Q.** What about the MIC [8] of the same compound?
**A.** 5.28 µM (≈ 16 µg/mL)

**Q.** What about the MIC [5] of the same compound?
**A.** 10.6 µM (≈ 32 µg/mL)

**Q.** And the MIC [9]?
**A.** 5.28 µM (≈ 16 µg/mL)

**Q.** What about the MIC [10] of the same compound?
**A.** 10.6 µM (≈ 32 µg/mL)

**Q.** And the MIC [11]?
**A.** 10.6 µM (≈ 32 µg/mL)

**Q.** What about the MIC [12] of the same compound?
**A.** 10.6 µM (≈ 32 µg/mL)

**Q.** What about the MIC [13] of the same compound?
**A.** 10.6 µM (≈ 32 µg/mL)

**Q.** Which results are given for `CC(C)C[C@H](NC(=O)[C@H](CCCN=C(N)N)NC(=O)[C@H](CCCN=C(N)N)NC(=O)[C@H](CC(C)C)NC(=O)[C@H](CCCN=C(N)N)NC(=O)[C@H](CCCN=C(N)N)NC(=O)[C@H](CCCN=C(N)N)NC(=O)[C@H](Cc1c[nH]c2ccccc12)NC(=O)[C@H](Cc1c[nH]c2ccccc12)NC(=O)[C@H](CCCN=C(N)N)NC(=O)[C@H](CCCN=C(N)N)NC(=O)[C@H](CCCN=C(N)N)NC(=O)[C@H](CC(C)C)NC(=O)[C@H](CCCN=C(N)N)NC(=O)[C@H](CCCN=C(N)N)NC(=O)[C@@H](N)CC(C)C)C(N)=O` [LRRLRRRWWRRRLRRL]?
**A.** MIC [14]: 6.65 µM (≈ 16 µg/mL); MIC [15]: 3.33 µM (≈ 8 µg/mL); MIC [16]: 6.65 µM (≈ 16 µg/mL); MIC [17]: 6.65 µM (≈ 16 µg/mL); MIC [18]: 4.7 µM (≈ 11.3 µg/mL); MIC [19]: 3.33 µM (≈ 8 µg/mL); MIC [20]: 3.33 µM (≈ 8 µg/mL); MIC [21]: 13.3 µM (≈ 32 µg/mL); MIC [22]: 6.65 µM (≈ 16 µg/mL); MIC [23]: 6.65 µM (≈ 16 µg/mL)

**Q.** `CC[C@H](C)[C@@H]1NC(=O)CNC(=O)[C@H](CCCCN)NC(=O)[C@H](Cc2ccc(O)cc2)NC(=O)[C@@H]2CSSC[C@H](NC1=O)C(=O)N[C@@H](Cc1ccccc1)C(=O)N[C@@H](CCCCN)C(=O)N[C@@H](CCCCN)C(=O)N[C@H](C(=O)N[C@@H](CCCCN)C(N)=O)CSSC[C@H](NC(=O)[C@H](Cc1ccccc1)NC(=O)[C@@H](N)CCCN=C(N)N)C(=O)N[C@@H](Cc1c[nH]c3ccccc13)C(=O)N[C@@H](CCCCN)C(=O)N[C@@H](C(C)C)C(=O)N2` [RFCWKVCYKGICFKKCK] was tested. Which MIC [24] did it give?
**A.** 0.934 µM (≈ 2 µg/mL)

**Q.** And the MIC [7]?
**A.** 3.74 µM (≈ 7.98 µg/mL)

**Q.** What about the MIC (Staphylococcus aureus) of the same compound?
**A.** 2.64 µM (≈ 5.64 µg/mL)

**Q.** And the MIC (Cutibacterium acnes)?
**A.** 1.87 µM (≈ 3.99 µg/mL)

**Q.** What about the MIC (Candida dubliniensis) of the same compound?
**A.** 7.5 µM (≈ 16 µg/mL)

**Q.** And the MIC [25]?
**A.** 7.47 µM (≈ 16 µg/mL)

**Q.** What about the MIC [26] of the same compound?
**A.** 7.47 µM (≈ 16 µg/mL)

**Q.** And the MIC [27]?
**A.** 3.74 µM (≈ 7.98 µg/mL)

**Q.** And the MIC (Candida glabrata)?
**A.** 15 µM (≈ 32 µg/mL)

**Q.** And the MIC (Staphylococcus aureus MR)?
**A.** 1.87 µM (≈ 3.99 µg/mL)

**Q.** What about the MIC [28] of the same compound?
**A.** 1.87 µM (≈ 3.99 µg/mL)

**Q.** What about the MIC [29] of the same compound?
**A.** 3.74 µM (≈ 7.98 µg/mL)

**Q.** What about the MIC (Klebsiella pneumoniae) of the same compound?
**A.** 2.64 µM (≈ 5.64 µg/mL)

**Q.** And the MIC (Debaryomyces hansenii)?
**A.** 7.5 µM (≈ 16 µg/mL)

**Q.** What about the MIC (Candida albicans 17-88) of the same compound?
**A.** 15 µM (≈ 32 µg/mL)

**Q.** And the MIC [30]?
**A.** 3.74 µM (≈ 7.98 µg/mL)

**Q.** What about the MIC (Candida albicans) of the same compound?
**A.** 10.6 µM (≈ 22.7 µg/mL)

**Q.** What about the MIC [5] of the same compound?
**A.** 1.87 µM (≈ 3.99 µg/mL)

**Q.** And the MIC (Kluyveromyces lactis)?
**A.** 3.7 µM (≈ 7.9 µg/mL)

**Q.** And the MIC (Candida parapsilosis)?
**A.** 15 µM (≈ 32 µg/mL)

**Q.** And the MIC [31]?
**A.** 1.87 µM (≈ 3.99 µg/mL)

**Q.** What about the MIC [32] of the same compound?
**A.** 7.47 µM (≈ 16 µg/mL)

**Q.** And the MIC (Candida krusei)?
**A.** 10.6 µM (≈ 22.7 µg/mL)

**Q.** And the MIC (Enterobacter cloacae)?
**A.** 3.74 µM (≈ 7.98 µg/mL)

**Q.** And the MIC (Acinetobacter baumannii)?
**A.** 3.74 µM (≈ 7.98 µg/mL)

**Q.** What about the MIC (Candida tropicalis) of the same compound?
**A.** 2.65 µM (≈ 5.66 µg/mL)

**Q.** And the MIC [13]?
**A.** 1.87 µM (≈ 3.99 µg/mL)

**Q.** And the MIC (Pseudomonas aeruginosa)?
**A.** 1.87 µM (≈ 3.99 µg/mL)

**Q.** With `CC[C@H](C)[C@H](NC(=O)[C@H](CCCCN)NC(=O)[C@H](CCCN=C(N)N)NC(=O)[C@@H](NC(=O)[C@@H](N)Cc1ccc(O)cc1)[C@@H](C)CC)C(=O)N[C@@H](CCCN=C(N)N)C(=O)N[C@@H](CCCN=C(N)N)C(=O)N[C@@H](Cc1ccccc1)C(=O)N[C@@H](Cc1ccccc1)C(=O)N[C@@H](CCCCN)C(=O)N[C@H](C(=O)N[C@@H](CC(C)C)C(=O)N[C@@H](CC(N)=O)C(=O)N[C@@H](CCCCN)C(=O)N[C@@H](CC(N)=O)C(=O)N[C@@H](CC(C)C)C(=O)N[C@@H](CCCCN)C(=O)N[C@@H](CCCCN)C(N)=O)[C@@H](C)O` [YIRKIRRFFKTLNKNLKK] as the compound, how does the MIC [33] read?
**A.** 13.5 µM (≈ 32 µg/mL)
